# According to US9828385B2, “Spiro-oxazolones” (Hoffmann-La Roche Inc., priority 2014, dated 2017):
# Target: T1, human V1a receptor (Homo sapiens, UniProt P37288)
# T1 construct: expressed in transfected cells; host or cells: HEK293 cells, transiently transfected; cell membranes
# Test: human V1a receptor binding studies (3H-Vasopressin, SPA beads)
# Details: membranes of HEK293 cells transiently transfected with human V1a receptor, Ki by Cheng-Prussoff from IC50, read-out: pKi hV1a (converted)
# Experimental: The human V1a receptor was cloned by RT-PCR from total human liver RNA. The coding sequence was subcloned in an expression vector after sequencing to confirm the identity of the amplified sequence. […] Cell membranes were prepared from HEK293 cells transiently transfected with the expression vector and grown in 20 liter fermenters with the following protocol.
# 50 g of cells are re-suspended in 30 ml freshly prepared ice cold Lysis buffer (50 mM HEPES, 1 mM EDTA, 10 mM MgCl2 adjusted to pH=7.4+complete cocktail of protease inhibitor (Roche Diagnostics)). Homogenized with Polytron for 1 min and sonicated on ice for 2×2 minutes at 80% intensity (Vibracell sonicator). The preparation is centrifuged 20 min at 500 g at 4° C., the pellet is discarded and the supernatant centrifuged 1 hour at 43′000 g at 4° C. (19′000 rpm). The pellet is re-suspended in 12.5 ml Lysis buffer+12.5 ml Sucrose 20% and homogenized using a Polytron for 1-2 min. The protein concentration is determined by the Bradford method and aliquots are stored at −80° C. until use. For binding studies 60 mg Yttrium silicate SPA beads (Amersham) are mixed with an aliquot of membrane in binding buffer (50 mM Tris, 120 mM NaCl, 5 mM KCl, 2 mM CaCl2, 10 mM MgCl2) for 15 minutes with mixing. 50 μl of bead/membrane mixture is then added to each well of a 96 well plate, followed by 50 μl of 4 nM 3H-Vasopressin (American Radiolabeled Chemicals). For total binding measurement 100 μl of binding buffer are added to the respective wells, for non-specific binding 100 μl of […] cold vasopressin and for compound testing 100 μl of a serial dilution of each compound in 2% DMSO. The plate is incubated 1 h at room temperature, centrifuged 1 min at 1000 g and counted on a Packard Top-Count. Non-specific binding counts are subtracted from each well and data is normalized to the maximum specific binding set at 100%. To calculate an IC 50 the curve is fitted using a non-linear regression model (XLfit) and the Ki is calculated using the Cheng-Prussoff equation.
# T1 sequence (P37288 whole entry): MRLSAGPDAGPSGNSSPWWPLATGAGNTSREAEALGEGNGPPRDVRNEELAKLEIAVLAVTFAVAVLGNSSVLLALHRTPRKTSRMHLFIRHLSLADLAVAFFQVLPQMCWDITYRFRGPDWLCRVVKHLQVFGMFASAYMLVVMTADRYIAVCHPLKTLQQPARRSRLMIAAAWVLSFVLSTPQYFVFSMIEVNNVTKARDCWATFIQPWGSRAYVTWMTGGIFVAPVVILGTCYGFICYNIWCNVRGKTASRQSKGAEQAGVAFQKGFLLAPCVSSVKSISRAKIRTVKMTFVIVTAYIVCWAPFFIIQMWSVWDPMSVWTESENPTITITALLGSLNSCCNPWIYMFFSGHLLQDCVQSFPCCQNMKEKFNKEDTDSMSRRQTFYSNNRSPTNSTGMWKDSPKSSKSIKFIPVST
row,Structure (SMILES),Ki [nM]
1,"O=C1N=C(N2CCC3(CC2)OCc2ccccc23)OC1C(F)c1ccc(Cl)cc1 (single isomer, unassigned) [Example 47, 5-((4-Chlorophenyl)fluoromethyl)-2-(1′H,3H-spiro[2-benzofuran-1,4′-piperidin]-1′-yl)-1,3-oxazol-4(5H)-one diastereomer a, enantiomer B]",20
2,"O=C1N=C(N2CCC3(CC2)OCc2ccccc23)OC12CC=C(C(F)(F)F)C2 (stereo not shown) [Example 117, 2-(1′H,3H-Spiro[2-benzofuran-1,4′-piperidin]-1′-yl)-7-(trifluoromethyl)-1-oxa-3-azaspiro[4.4]nona-2,7-dien-4-one]",1.26
3,"CC(c1ccccc1)C1(C)OC(N2CCC3(CC2)OCc2ccccc23)=NC1=O (single isomer, unassigned; diastereomer b) [Example 111, (+)-5-Methyl-5-(1-phenylethyl)-2-(1′H,3H-spiro[2-benzofuran-1,4′-piperidin]-1′-yl)-1,3-oxazol-4(5H)-one diastereomer b]",251
4,"O=C1N=C(N2CCC3(CC2)OCc2ccccc23)OC12CCS(=O)(=O)CC2 [Example 133, 2-(1′H,3H-Spiro[2-benzofuran-1,4′-piperidin]-1′-yl)-1-oxa-8-thia-3-azaspiro[4.5]dec-2-en-4-one 8,8-dioxide]",126
5,"CC(=O)O[C@H]1CC2(C[C@H]1OC(C)=O)OC(N1CCC3(CC1)OCc1ccccc13)=NC2=O (single isomer, unassigned; diastereomer b) [Example 121, 4-Oxo-2-(1′H,3H-spiro[2-benzofuran-1,4′-piperidin]-1′-yl)-1-oxa-3-azaspiro[4.4]non-2-ene-7,8-diyl diacetate diastereomer b]",6.31
6,"O=C1N=C(N2CCC3(CC2)OCc2ccccc23)OC1C(F)c1ccc(Cl)cc1 (single isomer, unassigned) [Example 49, 5-((4-Chlorophenyl)fluoromethyl)-2-(1′H,3H-spiro[2-benzofuran-1,4′-piperidin]-1′-yl)-1,3-oxazol-4(5H)-one diastereomer b, enantiomer B]",2
7,"CCCCC1(C)OC(N2CCC3(CC2)OCc2ccccc23)=NC1=O (stereo not shown) [Example 66, 5-Butyl-5-methyl-2-(1′H,3H-spiro[2-benzofuran-1,4′-piperidin]-1′-yl)-1,3-oxazol-4(5H)-one]",39.8
8,"CC1(CC2CCCCC2)OC(N2CCC3(CC2)OCc2ccccc23)=NC1=O (stereo not shown) [Example 79, 5-(Cyclohexylmethyl)-5-methyl-2-(1′H,3H-spiro[2-benzofuran-1,4′-piperidin]-1′-yl)-1,3-oxazol-4(5H)-one]",20
9,"O=C1OC2(CCN(C3=NC(=O)C4(CCC(F)(F)CC4)O3)CC2)c2ccccc21 [Example 131, 1′-(8,8-Difluoro-4-oxo-1-oxa-3-azaspiro[4.5]dec-2-en-2-yl)-3H-spiro[2-benzofuran-1,4′-piperidin]-3-one]",50.1
10,"CCOC(=O)C1=CCC2(C1)OC(N1CCC3(CC1)OCc1ccccc13)=NC2=O (stereo not shown) [Example 116, Ethyl 4-oxo-2-(1′H,3H-spiro[2-benzofuran-1,4′-piperidin]-1′-yl)-1-oxa-3-azaspiro[4.4]nona-2,7-diene-7-carboxylate]",126
11,"O=C1N=C(N2CCC3(CC2)OCc2cccc(F)c23)OC1Cc1ccccc1 (stereo not shown) [Example 23, 5-Benzyl-2-(7-fluoro-1′H,3H-spiro[2-benzofuran-1,4′-piperidin]-1′-yl)-1,3-oxazol-4(5H)-one]",2.51
12,"CC1(CC2CCOC2)OC(N2CCC3(CC2)OCc2ccccc23)=NC1=O (single isomer, unassigned; diastereomer a) [Example 99, 5-Methyl-2-(1′H,3H-spiro[2-benzofuran-1,4′-piperidin]-1′-yl)-5-(tetrahydrofuran-3-ylmethyl)-1,3-oxazol-4(5H)-one diastereomer a]",251
13,"C=C(C)CC1OC(N2CCC3(CC2)OCc2ccccc23)=NC1=O (stereo not shown) [Example 9, 5-(2-Methylprop-2-en-1-yl)-2-(1′H,3H-spiro[2-benzofuran-1,4′-piperidin]-1′-yl)-1,3-oxazol-4(5H)-one]",2
14,"CC1(CC2CCCC2)OC(N2CCC3(CC2)OCc2ccccc23)=NC1=O (single isomer, unassigned; (+)) [Example 77, (+)-5-(Cyclopentylmethyl)-5-methyl-2-(1′H,3H-spiro[2-benzofuran-1,4′-piperidin]-1′-yl)-1,3-oxazol-4(5H)-one]",2.51
15,"CC#CCC1(CC#CC)OC(N2CCC3(CC2)OCc2ccccc23)=NC1=O [Example 55, 5,5-Di(but-2-ynyl)-2-(3H-spiro[isobenzofuran-1,4′-piperidine]-1′-yl)oxazol-4(5H)-one]",5.01
16,"CC1(C(F)(F)c2ccc(C(F)F)cc2)OC(N2CCC3(CC2)OCc2ccccc23)=NC1=O (stereo not shown) [Example 89, 5-{[4-(Difluoromethyl)phenyl](difluoro)methyl}-5-methyl-2-(1′H,3H-spiro[2-benzofuran-1,4′-piperidin]-1′-yl)-1,3-oxazol-4(5H)-one]",158
17,"CC1(C(O)c2ccc(Cl)cc2)OC(N2CCC3(CC2)OC(=O)c2ccccc23)=NC1=O (stereo not shown) [Example 93, 1′-{5-[(4-Chlorophenyl)(hydroxy)methyl]-5-methyl-4-oxo-4,5-dihydro-1,3-oxazol-2-yl}-3H-spiro[2-benzofuran-1,4′-piperidin]-3-one]",126
18,"CC(c1ccccc1)C1(C)OC(N2CCC3(CC2)OCc2ccccc23)=NC1=O (single isomer, unassigned; diastereomer a) [Example 109, (−)-5-Methyl-5-(1-phenylethyl)-2-(1′H,3H-spiro[2-benzofuran-1,4′-piperidin]-1′-yl)-1,3-oxazol-4(5H)-one diastereomer a]",50.1
19,"CC1(C(O)c2ccc(Cl)cc2)OC(N2CCC3(CC2)OCc2ccccc23)=NC1=O (stereo not shown) [Example 91, 5-[(4-Chlorophenyl)(hydroxy)methyl]-5-methyl-2-(1′H,3H-spiro[2-benzofuran-1,4′-piperidin]-1′-yl)-1,3-oxazol-4(5H)-one]",25.1
20,"CC1(Cc2ccc(Cl)nc2)OC(N2CCC3(CC2)OCc2ccccc23)=NC1=O (stereo not shown) [Example 82, 5-[(6-Chloropyridin-3-yl)methyl]-5-methyl-2-(1′H,3H-spiro[2-benzofuran-1,4′-piperidin]-1′-yl)-1,3-oxazol-4(5H)-one]",50.1
21,"CC(C)CC1OC(N2CCC3(CC2)OCc2ccccc23)=NC1=O (stereo not shown) [Example 7, 5-(2-Methylpropyl)-2-(1′H,3H-spiro[2-benzofuran-1,4′-piperidin]-1′-yl)-1,3-oxazol-4(5H)-one]",20
22,"CC1(CC2CCCC2)OC(N2CCC3(CC2)OCc2ccccc23)=NC1=O (stereo not shown) [Example 76, 5-(Cyclopentylmethyl)-5-methyl-2-(1′H,3H-spiro[2-benzofuran-1,4′-piperidin]-1′-yl)-1,3-oxazol-4(5H)-one]",5.01
23,"O=C1N=C(N2CCC3(CC2)OCc2ccccc23)OC12CNCc1ccccc1C2 (stereo not shown) [Example 138, 2′-(1′H,3H-Spiro[2-benzofuran-1,4′-piperidin]-1′-yl)-1,2,3,5-tetrahydro-4′H-spiro[2-benzazepine-4,5′-[1,3]oxazol]-4′-one]",6.31
24,"O=C1N=C(N2CCC3(CC2)OCc2ccccc23)OC1C(O)c1ccc(Cl)cc1 (single isomer, unassigned; diastereomer a) [Example 43, (+)-5-[(4-Chlorophenyl)(hydroxy)methyl]-2-(1′H,3H-spiro[2-benzofuran-1,4′-piperidin]-1′-yl)-1,3-oxazol-4(5H)-one diastereomer a]",15.8
25,"O=C1N=C(N2CCC3(CC2)OCc2ccccc23)OC1C(O)c1ccccc1 (single isomer, unassigned) [Example 37, 5-(Hydroxy(phenyl)methyl)-2-(1′H,3H-spiro[2-benzofuran-1,4′-piperidin]-1′-yl)-1,3-oxazol-4(5H)-one diastereomer a, enantiomer B]",126
26,"O=C1N=C(N2CCC3(CC2)OCc2ccc(F)cc23)OC1Cc1ccccc1 (stereo not shown) [Example 25, 5-Benzyl-2-(6-fluoro-1′H,3H-spiro[2-benzofuran-1,4′-piperidin]-1′-yl)-1,3-oxazol-4(5H)-one]",6.31
27,"CN1Cc2ccccc2CC2(C1)OC(N1CCC3(CC1)OCc1ccccc13)=NC2=O (stereo not shown) [Example 139, 2-Methyl-2′-(1′H,3H-spiro[2-benzofuran-1,4′-piperidin]-1′-yl)-1,2,3,5-tetrahydro-4′H-spiro[2-benzazepine-4,5′-[1,3]oxazol]-4′-one]",1.26
28,"O=C1OC2(CCN(C3=NC(=O)C(C(O)c4ccc(Cl)cc4)O3)CC2)c2ccccc21 (single isomer, unassigned) [Example 53, 1′-{-5-[(4-Chlorophenyl)(hydroxy)methyl]-4-oxo-4,5-dihydro-1,3-oxazol-2-yl}-3H-spiro[2-benzofuran-1,4′-piperidin]-3-one diastereomer b, enantiomer B]",158
